Patent US12213483B1, “Herbicidal compositions comprising trifludimoxazin” (BASF SE, priority 2024, dated 2025)
Values joined by “and” are separate entries in the source; they are usually repeats but may differ in a detail not shown here. Identical values can stand only once.

Key:
Type in all cases: in vivo
Sorghum bicolor (SORVU) = test: Post-emergence application in field trials, SORVU; settings: 22 DAT; water volume 200 l/ha; growth stage 21-31; volunteer crop, non PPO-i herbicide tolerant; 12.5 g ai/ha
Experimental: (§1) In the examples below, using the method of S. R. Colby (1967) “Calculating synergistic and antagonistic responses of herbicide combinations”, Weeds 15, p. 22ff., the value E, which is expected if the activity of the individual active compounds is only additive, was calculated: E=X+Y−(X·Y/100) • where • X=percent activity using active herbicide A at an application rate a; • Y=percent activity using active trifludimoxazin at an application rate b; • E=expected activity (in %) by A+B at application rates a+b.
(§2) If the value found experimentally is higher than the value E calculated according to Colby, a synergistic effect is present.
(§3) On field test sites, natural weed infestation or seeded weeds were treated post-emergence of the weeds.
(§4) In the field trials, the weedy plants were treated as indicated below.
(§5) Herbicide A-1 (342 g/I), trifludimoxazin (500 g/I) and saflufenacil (342 g/I) were, together with addition of 1% MSO (methylated seed oil) as adjuvant (unless indicated otherwise), formulated in water as distribution medium as indicated and sprayed with commercial flat fan nozzles.
(§6) In the following experiments, the herbicidal activity for the individual herbicidal compositions (solo and mixture applications) was assessed at the indicated days after treatment (DAT). […]

[1] = test system: Amaranthus palmeri (AMAPA); test: Post-emergence application in field trials, AMAPA; settings: 21 DAT; water volume 200 l/ha; 0.25 l/ha Dash MSO Max; pre plant burndown; height 30 cm; B-1 12.5 g ai/ha
Experimental: as §1, §2, §3, §4, §5
(§7) In the following experiments, the herbicidal activity for the individual herbicidal compositions (solo and mixture applications) was assessed at the indicated days after treatment (DAT). The assessments for the damage on undesired weeds caused by the composition was carried out using a scale from 0 to 100%, compared to the untreated control plants. Here, 0 means no damage and 100 means complete destruction of the plants.
(§8) Herbicide A-1 (100 g/l) and trifludimoxazin (500 g/l) were, together with addition of 1% MSO (methylated seed oil) as adjuvant (unless indicated otherwise), formulated in water as distribution medium as indicated and sprayed with commercial flat fan nozzles.

Kochia scoparia (KCHSC) [2] = test: Post-emergence application in field trials, KCHSC; settings: 28 DAT; water volume 100 l/ha; pre plant burndown; growth stage 11-16; height 1-9 cm; 18 g ai/ha
Experimental: as §1, §2, §3, §4, §5, §6

[3] = test system: Erigeron canadensis (ERICA); test: Post-emergence application in greenhouse trials, ERICA; settings: 20 DAT; GS 19; B-1 1.1 g ai/ha
Experimental: as §1, §2
(§9) The culture containers used were plastic pots containing loamy sand with approximately 3.0% of humus as substrate. The seeds of the test plants were sown separately for each species.
For the post-emergence treatment, the test plants were grown to a plant height of from 3 to 15 cm, depending on the plant habit, and only then treated with the active compounds which had been suspended or emulsified in water. To this end, the test plants were either sown directly, and grown in the same containers, or they were first grown separately as seedlings and transplanted into the test containers a few days prior to treatment. […]
The test period extended over 2 to 4 weeks. During this time, the plants were tended and their response to the individual treatments was evaluated. […]

[4] = test system: Brachiaria decumbens (BRADC); test: Post-emergence application in field trials, BRADC; settings: 3 DAT; water volume 200 l/ha; growth stage 21-31; height 3-20 cm; 12.5 g ai/ha
Experimental: as §1, §2, §3, §4, §5, §6

[5] = test system: Digitaria sanguinales (DIGSA); test: Post-emergence application in greenhouse trials, DIGSA
Experimental: as §1, §2, §9
(§10) For the post-emergence treatment, the test plants were grown to a plant height of from 3 to 15 cm, depending on the plant habit, and only then treated with the active compounds which had been suspended or emulsified in water. To this end, the test plants were either sown directly, and grown in the same containers, or they were first grown separately as seedlings and transplanted into the test containers a few days prior to treatment.
(§11) Depending on the species, the plants were kept at 10-25° C. and 20-35° C., respectively.
(§12) The test period extended over 2 to 4 weeks. During this time, the plants were tended and their response to the individual treatments was evaluated.
(§13) Evaluation was carried out using a scale from 0 to 100. 100 means no emergence of the plants, or complete destruction of at least the above-ground parts, and 0 means no damage or normal course of growth. A good herbicidal activity is given at values of at least 70, and very good herbicidal activity is given at values of at least 85.
(§14) In the greenhouse trials, unless indicated otherwise, herbicide A, trifludimoxazin and saflufenacil were formulated (50 g/I) and applied with addition of 1% MSO (methylated seed oil) as adjuvant. The solvent used was water (200 I/ha).

Setaria italica (SETIT) = test: Post-emergence application in field trials, SETIT; settings: 22 DAT; water volume 200 l/ha; growth stage 21-31; 12.5 g ai/ha
Experimental: as §1, §2, §3, §4, §5, §6

[6] = test system: Euphorbia heterophylla (EPHHL); test: Post-emergence application in field trials, EPHHL; settings: 43 DAT; water volume 200 l/ha; growth stage 16-18; height 10-15 cm; 12.5 g ai/ha
Experimental: as §1, §2, §3, §4, §5, §6

Setaria viridis (SETVI) = test: Post-emergence application in greenhouse trials, SETVI
Experimental: as §1, §2, §9, §10, §11, §12, §13, §14

Avena fatua (AVEFA) = test: Post-emergence application in greenhouse trials, AVEFA
Experimental: as §1, §2, §9, §10, §11, §12, §13, §14

Kochia scoparia (KCHSC) [7] = test: Post-emergence application in greenhouse trials, KCHSC
Experimental: as §1, §2, §9, §10, §11, §12, §13, §14

[8] = test system: Senna obtusifolia (CASOB); test: Post-emergence application in field trials, CASOB; settings: 43 DAT; water volume 200 l/ha; growth stage 12-35; height 5-20 cm; 12.5 g ai/ha
Experimental: as §1, §2, §3, §4, §5, §7, §8

Sinapis alba (SINAL) = test: Post-emergence application in field trials, SINAL; settings: 7 DAT; water volume 200 l/ha; growth stage 14-21; height 11-12 cm; 12.5 g ai/ha
Experimental: as §1, §2, §3, §4, §5, §6

Cyperus iria (CYPIR) = test: Post-emergence application in field trials, CYPIR; settings: 3 DAT, height 3-5 cm
Experimental: as §1, §2, §3, §4, §5, §7, §8

[9] = test system: Commelina benghalensis (COMBE); test: Post-emergence application in greenhouse trials, COMBE
Experimental: as §1, §2, §9, §10, §11, §12, §13, §14

With `C#CCN1C(=O)C(F)(F)Oc2cc(F)c(-n3c(=O)n(C)c(=S)n(C)c3=O)cc21` [B-1, trifludimoxazin] the “% Herbicidal activity” value (Sorghum bicolor (SORVU)) was 20%, the “% Herbicidal activity” value [1] was 20% and the “% Herbicidal activity” value (Kochia scoparia (KCHSC) [2]) was 68%. For the same compound, the “% Herbicidal activity” value [3] was 40%, the “% Herbicidal activity” value [4] was 43% and the “% Herbicidal activity” value ([5]; 7 DAT, GS 12, B-1 0.3 g ai/ha) was 15% and 10%. For the same compound, the “% Herbicidal activity” value ([5]; 7 DAT, GS 12, B-1 0.4 g ai/ha) was 15%, the “% Herbicidal activity” value ([5]; 7 DAT, GS 12, B-1 0.8 g ai/ha) was 45% and the “% Herbicidal activity” value ([5]; 19 DAT, B-1 formulated as 500 g/l, GS 13, B-1 2 g ai/ha) was 40%. The “% Herbicidal activity” value (Setaria italica (SETIT)) was 27%, the “% Herbicidal activity” value [6] was 60% and the “% Herbicidal activity” value (Setaria viridis (SETVI); 7 DAT, GS 14, B-1 0.3 g ai/ha) was 35%. For the same compound, the “% Herbicidal activity” value (Setaria viridis (SETVI); 7 DAT, GS 14, B-1 0.8 g ai/ha) was 45%, the “% Herbicidal activity” value (Setaria viridis (SETVI); 7 DAT, GS 14, B-1 0.9 g ai/ha) was 55% and the “% Herbicidal activity” value (Setaria viridis (SETVI); 7 DAT, GS 14, B-1 1 g ai/ha) was 60%. The “% Herbicidal activity” value (Setaria viridis (SETVI); 20 DAT, GS 14, B-1 0.3 g ai/ha) was 10%, the “% Herbicidal activity” value (Setaria viridis (SETVI); 20 DAT, GS 14, B-1 0.9 g ai/ha) was 70% and the “% Herbicidal activity” value (Setaria viridis (SETVI); 20 DAT, growth stage 14, 0.3 g ai/ha) was 10%. The “% Herbicidal activity” value (Avena fatua (AVEFA); 7 DAT, GS 13, B-1 0.2 g ai/ha) was 20%, the “% Herbicidal activity” value (Avena fatua (AVEFA); 20 DAT, B-1 formulated as 500 g/l, GS 12, B-1 1 g ai/ha) was 15% and the “% Herbicidal activity” value (Avena fatua (AVEFA); 20 DAT, growth stage 13, 0.9 g ai/ha) was 20%. For the same compound, the “% Herbicidal activity” value (Kochia scoparia (KCHSC) [7]; 6 DAT, GS 33, B-1 0.3 g ai/ha) was 45%, the “% Herbicidal activity” value (Kochia scoparia (KCHSC) [7]; 6 DAT, GS 33, B-1 0.5 g ai/ha) was 80% and the “% Herbicidal activity” value (Kochia scoparia (KCHSC) [7]; 6 DAT, GS 33, B-1 0.8 g ai/ha) was 85%. The “% Herbicidal activity” value (Kochia scoparia (KCHSC) [7]; 20 DAT, GS 33, B-1 0.3 g ai/ha) was 35%, the “% Herbicidal activity” value (Kochia scoparia (KCHSC) [7]; 20 DAT, GS 33, B-1 0.9 g ai/ha) was 80% and the “% Herbicidal activity” value (Kochia scoparia (KCHSC) [7]; 20 DAT, GS 33, B-1 1 g ai/ha) was 98%. The “% Herbicidal activity” value (Kochia scoparia (KCHSC) [7]; 20 DAT, growth stage 33, 0.3 g ai/ha) was 35%, the “% Herbicidal activity” value (Kochia scoparia (KCHSC) [7]; 20 DAT, growth stage 33, 0.5 g ai/ha) was 75% and the “% Herbicidal activity” value [8] was 48%. For the same compound, the “% Herbicidal activity” value (Sinapis alba (SINAL)) was 82%, the “% Herbicidal activity” value (Cyperus iria (CYPIR); water volume 200 l/ha, growth stage 13-14, 25 g ai/ha) was 63% and the “% Herbicidal activity” value (Cyperus iria (CYPIR); water volume 300 l/ha, burndown in fruit plantation (citrus), GS 13-14, B-1 25 g ai/ha) was 65%. The “% Herbicidal activity” value ([9]; 6 DAT, GS 21, B-1 0.3 g ai/ha) was 45%, the “% Herbicidal activity” value ([9]; 20 DAT, GS 21, B-1 0.3 g ai/ha) was 0% and the “% Herbicidal activity” value ([9]; 20 DAT, GS 21, B-1 0.9 g ai/ha) was 15%. The “% Herbicidal activity” value ([9]; 20 DAT, growth stage 21, 0.3 g ai/ha) was 0%.
